Assay results taken from patent publication US10300067B2, “Tetrahydropyridopyrimidine compound or salt thereof” (TAIHO PHARMACEUTICAL CO., LTD., priority 2014, dated 2019).

What was measured:
Type in all cases: cell-based
[1] = test system: Human prostate cancer cells LNCaP; assay: Androgen-dependent inhibitory activity on proliferation of prostate cancer cells; settings: 50% proliferation inhibition concentration, DHT 10 nmol/L, 72 hours, read-out: GI50 value
Method: Human prostate cancer cells LNCaP (Non-Patent Literature 5) having […] androgen receptor gene were seeded in a clear bottom 96 well microplate (BD) at 4.0×10^3/well with phenol red free RPMI1640 containing 5% DCC-FBS (hereinbelow, the medium is referred to as an evaluation medium), and then cultured overnight. The culture was added with the evaluation medium containing DHT (final concentration of DHT: 10 nmol/L) or the evaluation medium containing the compound of Examples or the compound of Comparative Examples (final concentration of the compound of Examples or the compound of Comparative Examples: 10, 30, 100, 300, 1000, 3000, 10000, or 30000 nmol/L), followed by culture for 72 hours. Then, the number of viable cells was counted. The number of viable cells was measured by using Cell Counting Kit-8 (DOJINDO LABORATORIES).

[2] = test system: AR positive human prostate cancer cells VCaP; assay: Agonist activity for AR (cell proliferation rate of VCaP cells); settings: 72 hours, 2 to 10000 nmol/L, more than 10% at any concentration = agonist activity for AR
Method: AR positive human prostate cancer cells VCaP (In Vivo 15:163-168, 2001) were seeded in a clear bottom 96 well microplate (BD) at 1.5×10^4/well with phenol red free RPMI1640 containing 5% DCC-FBS (hereinbelow, the medium is referred to as an evaluation medium), and then cultured overnight. The culture was added with the evaluation medium containing the compound of Examples or the compound of Comparative Examples (final concentration of the compound of Examples or the compound of Comparative Examples: 2, 5, 14, 41, 123, 370, 1111, 3333, or 10000 nmol/L), followed by culture for 72 hours. Then, the number of viable cells was counted (test group). As a control, the cells were cultured after being added with the evaluation medium only, and the number of viable cells was counted (control group). The number of viable cells was measured by using CellTiter-Glo™ Luminescent Cell Viability Assay (Promega). From the measured number of viable cells, cell proliferation rate with respect to the compound of Examples or the compound of Comparative Examples was calculated based on the number of viable cells measured in the case of using the evaluation medium only. Cell proliferation rate (%) =(Number of viable cells in test group−Number of viable cells in control group)/(Number of viable cells in control group)×100
By considering an error in the number of viable cells measured in the case of using the evaluation medium only, when the cell proliferation rate was more than 10% at any concentration of the 9 concentrations which had been evaluated, it was determined to have an agonist activity for AR.

human androgen receptor = human androgen receptor (Homo sapiens (Human), UniProt P10275); assay: Antagonist activity for AR (pMMTV-luc reporter transcription activity in transfected COS-7 cells, DHT 1 nmol/L); settings: 50% transcription activity inhibition concentration; COS-7 cells with pMMTV-luc and pEX-hAR, DHT 1 nmol/L, 24 hours
Method: Antagonist activity for AR was evaluated according to the following method. COS-7 cells (ATCC) were transfected with pMMTV-luc vector (reporter plasmid having, as an androgen response element, […] long terminal repeat) and pEX-hAR vector (human androgen receptor expression vector: which expresses human AR gene under control of CMV promoter) by using Nucleofector (registered trademark) Kit R (Lonza) as a transfection reagent and Amaxa (Lonza). The COS-7 cells obtained after transfection were seeded in a clear bottom 96 well microplate (BD) at 1.5×10^4/well with phenol red free RPMI1640 containing 10% charcoal-treated fetal bovine serum (hereinbelow, DCC-FBS) (hereinbelow, the medium is referred to as an evaluation medium), and then cultured overnight. […] Then, the transcription activity value was measured. The transcription activity was measured by using Bright-Glo™ Luciferase Assay System (Promega).

androgen receptor = androgen receptor (Homo sapiens (Human), UniProt P10275, T878A); assay: Activity of reducing expression level of androgen receptor (Western blotting of LNCaP cell lysate); settings: 48 hours
Method: AR positive human prostate cancer cells LNCaP were seeded in a clear bottom 6 well microplate (BD) at 3.5×10^5/well with phenol red free RPMI1640 containing 5% FBS (hereinbelow, the medium is referred to as an evaluation medium), and then cultured overnight. The culture was added with the evaluation medium containing the compound of Examples or the compound of Comparative Examples such that the final concentration of the compound of Examples or the compound of Comparative Examples was 10000 nmol/L, followed by culture for 48 hours. After culture for 48 hours, the medium was removed and the cells were washed with PBS and added with 0.1 mL of Lysis buffer (M-PER added with Protease Inhibitor Cocktail), followed by keeping at 4° C. for 20 minutes. After cell lysis, the cell solution was centrifuged to recover the supernatant as cell lysate. […] The antibody-reacting band (anti AR receptor) was quantified by LAS-3000 (FUJIFILM) using Super Signal West Pico Substrate (Thermo Scientific) as a detection reagent.

human androgen receptor, sequence (P10275 whole entry): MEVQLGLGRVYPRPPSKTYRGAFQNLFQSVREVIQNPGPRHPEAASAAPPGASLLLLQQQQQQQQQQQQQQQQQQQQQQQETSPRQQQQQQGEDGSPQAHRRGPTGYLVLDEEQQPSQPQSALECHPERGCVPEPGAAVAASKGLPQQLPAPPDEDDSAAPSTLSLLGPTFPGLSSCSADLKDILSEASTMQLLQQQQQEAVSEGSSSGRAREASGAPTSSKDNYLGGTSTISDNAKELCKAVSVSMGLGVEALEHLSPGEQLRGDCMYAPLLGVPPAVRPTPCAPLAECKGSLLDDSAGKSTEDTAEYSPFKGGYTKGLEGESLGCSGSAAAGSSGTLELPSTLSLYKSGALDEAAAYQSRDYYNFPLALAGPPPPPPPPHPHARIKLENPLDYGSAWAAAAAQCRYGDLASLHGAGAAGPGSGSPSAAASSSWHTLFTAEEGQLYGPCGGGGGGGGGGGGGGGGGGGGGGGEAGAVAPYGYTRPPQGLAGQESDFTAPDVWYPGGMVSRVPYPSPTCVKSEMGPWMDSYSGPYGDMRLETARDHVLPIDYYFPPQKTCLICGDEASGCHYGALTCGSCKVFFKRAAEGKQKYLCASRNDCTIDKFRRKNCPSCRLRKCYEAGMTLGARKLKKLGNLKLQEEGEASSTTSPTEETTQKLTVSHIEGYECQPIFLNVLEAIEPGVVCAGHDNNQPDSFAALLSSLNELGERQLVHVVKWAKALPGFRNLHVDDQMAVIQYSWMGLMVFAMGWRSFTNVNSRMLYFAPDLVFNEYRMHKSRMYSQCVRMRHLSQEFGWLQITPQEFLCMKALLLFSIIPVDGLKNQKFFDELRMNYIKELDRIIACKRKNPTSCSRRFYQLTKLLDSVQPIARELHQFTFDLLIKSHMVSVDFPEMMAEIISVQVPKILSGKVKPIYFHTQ
androgen receptor, sequence (P10275 whole entry T878A): as the sequence (P10275 whole entry) above, with T878A counted along it

SMILES	GI50 [1] [nM]	Cell proliferation rate (%) [2] [%]	IC50 (human androgen receptor) [nM]	10 μM AR expression reducing activity (androgen receptor)
CC(O)(CS(=O)(=O)c1ccc(F)cc1)C(=O)Nc1ccc(C#N)c(C(F)(F)F)c1 (stereo not drawn) [Comparative Example 1, N-(4-Cyano-3-(trifluoromethyl)phenyl)-3-((4-fluorophenyl)sulfonyl)-2-hydroxy-2-methylpropanamide, reference compound]	3500	39.7		
CC(C)(O)c1ccc(Nc2ncnc3c2CCN(c2ccc(C#N)c(Cl)c2)C3)nc1F [Example 46, 2-Chloro-4-(4-((6-fluoro-5-(2-hydroxypropan-2-yl)pyridin-2-yl)amino)-5,6-dihydropyrido[3,4-d]pyrimidin-7 (8H)-yl)benzonitrile]		1.0	250	reduced (When the AR expression reducing activity is 50% or more, it is described as “reduced”)
C[C@@H](NC(=O)c1sc(Nc2ncnc3c2CCN(c2ccc(C#N)c(C(F)(F)F)c2)C3)nc1C(F)(F)F)c1nnco1 [Example 37, (R)—N-(1-(1,3,4-Oxadiazol-2-yl)ethyl)-2-((7-(4-cyano-3-(trifluoromethyl)phenyl)-5,6,7,8-tetrahydropyrido[3,4-d]pyrimidin-4-yl)amino)-4-(trifluoromethyl) thiazol-5-carboxamide]		0.9	170	reduced (When the AR expression reducing activity is 50% or more, it is described as “reduced”)
CC(C)(COc1ncc(Nc2ncnc3c2CCN(c2ccc(C#N)c(C(F)(F)F)c2)C3)cc1F)n1cnnn1 [Example 50, 4-(4-((5-Fluoro-6-(2-methyl-2-(1H-tetrazol-1-yl)propoxy)pyridin-3-yl)amino)-5,6-dihydropyrido[3,4-d]pyrimidin-7(8H)-yl)-2-(trifluoromethyl)benzonitrile]		−3.7	320	reduced (When the AR expression reducing activity is 50% or more, it is described as “reduced”)
CC(C)(O)c1ccc(Nc2ncnc3c2CCN(c2ccc(C#N)c(Br)c2)C3)nc1 [Example 44, 2-Bromo-4-(4-((5-(2-hydroxypropan-2-yl)pyridin-2-yl)amino)-5,6-dihydropyrido[3,4-d]pyrimidin-7(8H)-yl)benzonitrile]		5.2	50	reduced (When the AR expression reducing activity is 50% or more, it is described as “reduced”)
CC(C)(COc1ncc(Nc2ncnc3c2CCN(c2ccc(C#N)c(C(F)(F)F)c2)C3)cc1F)n1ccnn1 [Example 51, 4-(4-((5-Fluoro-6-(2-methyl-2-(1H-1,2,3-triazol-1-yl)propoxy)pyridin-3-yl)amino)-5,6-dihydropyrido[3,4-d]pyrimidin-7(8H)-yl)-2-(trifluoromethyl)benzonitrile]		−5.4	1100	reduced (When the AR expression reducing activity is 50% or more, it is described as “reduced”)
CC(C)(COc1ncc(Nc2ncnc3c2CCN(c2ccc(C#N)c(C(F)(F)F)c2)C3)cc1Cl)n1cnnn1 [Example 52, 4-(4-((5-Chloro-6-(2-methyl-2-(1H-tetrazol-1-yl)propoxy)pyridin-3-yl)amino)-5,6-dihydropyrido[3,4-d]pyrimidin-7(8H)-yl)-2-(trifluoromethyl)benzonitrile]		−3.4	150	reduced (When the AR expression reducing activity is 50% or more, it is described as “reduced”)
C[C@@H](NC(=O)c1nnc(Nc2ncnc3c2CCN(c2ccc(C#N)c(C(F)(F)F)c2)C3)s1)c1nnco1 [Example 39, (R)—N-(1-(1,3,4-Oxadiazol-2-yl)ethyl)-5-((7-(4-cyano-3-(trifluoromethyl)phenyl)-5,6,7,8-tetrahydropyrido[3,4-d]pyrimidin-4-yl)amino)-1,3,4-thiadiazol-2-carboxamide]		5.5	2050	reduced (When the AR expression reducing activity is 50% or more, it is described as “reduced”)
CC(C)(O)c1cnc(Nc2ncnc3c2CCN(c2ccc(C#N)c(C(F)(F)F)c2)C3)cc1F [Example 47, 4-(4-((4-Fluoro-5-(2-hydroxypropan-2-yl)pyridin-2-yl)amino)-5,6-dihydropyrido[3,4-d]pyrimidin-7 (8H)-yl)-2-(trifluoromethyl)benzonitrile]		1.9	70	reduced (When the AR expression reducing activity is 50% or more, it is described as “reduced”)
N#Cc1ccc(N2CCc3c(ncnc3Nc3ccc(S(=O)(=O)NC4CC4)cn3)C2)cc1C(F)(F)F [Example 19, 6-((7-(4-Cyano-3-(trifluoromethyl)phenyl)-5,6,7,8-tetrahydropyrido[3,4-d]pyrimidin-4-yl)amino)-N-cyclopropylpyridine-3-sulfonamide]	3000		130	
N#Cc1ccc(N2CCc3c(ncnc3Nc3ccc(C(=O)N[C@H]4CC[C@H](O)CC4)nn3)C2)cc1Cl [Example 29, 6-((7-(3-Chloro-4-cyanophenyl)-5,6,7,8-tetrahydropyrido[3,4-d]pyrimidin-4-yl)amino)-N-((1r,4r)-4-hydroxycyclohexyl)pyridazine-3-carboxamide]	200		200	
COc1ccc(Nc2ncnc3c2CCN(c2ccc(C#N)c(C(F)(F)F)c2)C3)cc1 [Example 3, 4-(4-((4-Methoxyphenyl)amino)-5,6-dihydropyrido[3,4-d]pyrimidin-7(8H)-yl)-2-(trifluoromethyl)benzonitrile]		1.0	530	reduced (When the AR expression reducing activity is 50% or more, it is described as “reduced”)
N#Cc1ccc(N2CCc3c(ncnc3Nc3nc(C(F)(F)F)c(C(=O)NCC(F)(F)F)s3)C2)cc1C(F)(F)F [Example 26, 2-((7-(4-Cyano-3-(trifluoromethyl)phenyl)-5,6,7,8-tetrahydropyrido[3,4-d]pyrimidin-4-yl)amino)-N-(2,2,2-trifluoroethyl)-4-(trifluoromethyl)thiazol-5-carboxamide]		5.7	60	reduced (When the AR expression reducing activity is 50% or more, it is described as “reduced”)
